“And” between values parts separate entries of the source, which are not always exact repeats. Equal values may be shown once.
Legend:
[1] = biological target: NIM1 (Homo sapiens, UniProt Q8IY84); assay: HotSpot kinase assay; conditions: read-out: % Enzyme Activity (relative to DMSO control), 10 uM
Source text: (§1) Additionally, a 10-dose dilution series of staurosporine and other enzyme-appropriate compounds were included as positive control inhibitors.

[2] = biological target: MASTL (Homo sapiens, UniProt Q96GX5); assay: HotSpot kinase assay; conditions: read-out: % Enzyme Activity (relative to DMSO control), 10 uM
Source text: as §1

[3] = test system: hALPK1-KI mice; assay: Retinal microglia (IBA1-positive cells); conditions: individual animals
[4] = biological target: LIMK2 (Homo sapiens, UniProt P53671); assay: HotSpot kinase assay; conditions: read-out: % Enzyme Activity (relative to DMSO control), 10 uM
Source text: as §1

[5] = biological target: CK2a2 (Homo sapiens, UniProt P19784); assay: HotSpot kinase assay; conditions: read-out: % Enzyme Activity (relative to DMSO control), 10 uM
Source text: as §1

[6] = biological target: DCAMKL2 (Homo sapiens, UniProt Q8N568); assay: HotSpot kinase assay; conditions: read-out: % Enzyme Activity (relative to DMSO control), 10 uM
[7] = biological target: EPHA2 (Homo sapiens, UniProt P29317); assay: HotSpot kinase assay; conditions: read-out: % Enzyme Activity (relative to DMSO control), 10 uM
[8] = biological target: PDK2/PDHK2 (Homo sapiens, UniProt Q15119); assay: HotSpot kinase assay; conditions: read-out: % Enzyme Activity (relative to DMSO control), 10 uM
[9] = Pharmacokinetic analyses, oral once daily for 10 days; conditions: for CAVG: 10th daily dose; for concentration at 0 h / concentration at 0.5 h / concentration at 1 h / concentration at 2 h / concentration at 4 h / concentration at 6 h / concentration at 8 h / concentration at 12 h / concentration at 24 h / AUC / CL/F / Cmax / Tmax / Vd/F / half-life: male, C57BL/6J, mouse, plasma; for concentration at 0 h / concentration at 0.5 h / concentration at 1 h / concentration at 2 h / concentration at 4 h / concentration at 6 h / concentration at 8 h / concentration at 12 h / concentration at 24 h: oral, DF-003 Conc. in plasma; for concentration at 0 h: 0 hours after 10th dosing; for concentration at 0.5 h: 0.5 hours after 10th dosing; for concentration at 1 h: 1 hour after 10th dosing; for concentration at 2 h: 2 hours after 10th dosing; for concentration at 4 h: 4 hours after 10th dosing; for concentration at 6 h: 6 hours after 10th dosing; for concentration at 8 h: 8 hours after 10th dosing; for concentration at 12 h: 12 hours after 10th dosing; for concentration at 24 h: 24 hours after 10th dosing; for AUC / CL/F / Cmax / Tmax / Vd/F / half-life: po
Procedure: Mice were housed in a specific pathogen-free (SPF) animal facility at Drug Farm (Shanghai, China) in individually ventilated cages on a 12 h light/dark cycle with a bedding of wood shavings and ad libitum access to rodent chow. […] Six 8 week-old male C57BL/6J mice from Zhejiang Vital River Laboratory Animal Technology Co., Ltd. (Zhejiang, China) were randomly assigned to 2 groups (3 animals/group). […] The oral dosing volume for all animals was 10 mL/kg body weight. Drinking water and certified rodent diet were available to animals ad libitum, except that animals were fasted 16 h prior to the last administration until 4 h after the last dosing. Blood samples at 0 (right before the last dosing), 0.5, 1, 2, 4, 6, 8, 12, and 24 h after the 10th dosing were collected from the tail vein and transferred into tubes containing K2-EDTA. The tubes were gently inverted several times to ensure mixing and immediately placed on wet ice. Plasma was obtained by centrifugation at 3200 × g at 4 °C for 10 min and stored at ≤ -60 °C until subsequent analysis. Twenty-four hours after the 10th dosing, the animals were euthanized by CO2 inhalation.

[10] = biological target: DYRK4 (Homo sapiens, UniProt Q9NR20); assay: HotSpot kinase assay; conditions: read-out: % Enzyme Activity (relative to DMSO control), 10 uM
[11] = biological target: IKKe/IKBKE (Homo sapiens, UniProt Q14164); assay: HotSpot kinase assay; conditions: read-out: % Enzyme Activity (relative to DMSO control), 10 uM
Source text: as §1

[12] = biological target: CDK2/cyclin A (Homo sapiens, UniProt P24941); assay: HotSpot kinase assay; conditions: read-out: % Enzyme Activity (relative to DMSO control), 10 uM
Source text: as §1

[13] = biological target: ARAF (Homo sapiens, UniProt P10398); assay: HotSpot kinase assay; conditions: read-out: % Enzyme Activity (relative to DMSO control), 10 uM
[14] = biological target: ARK5/NUAK1 (Homo sapiens, UniProt O60285); assay: HotSpot kinase assay; conditions: read-out: % Enzyme Activity (relative to DMSO control), 10 uM
Source text: as §1

[15] = biological target: TTBK2 (Homo sapiens, UniProt Q6IQ55); assay: HotSpot kinase assay; conditions: read-out: % Enzyme Activity (relative to DMSO control), 10 uM
Source text: as §1

[16] = biological target: MARK1 (Homo sapiens, UniProt Q9P0L2); assay: HotSpot kinase assay; conditions: read-out: % Enzyme Activity (relative to DMSO control), 10 uM
[17] = biological target: IRAK4 (Homo sapiens, UniProt Q9NWZ3); assay: HotSpot kinase assay; conditions: read-out: % Enzyme Activity (relative to DMSO control), 10 uM
Source text: as §1

[18] = biological target: FRK/PTK5 (Homo sapiens, UniProt P42685); assay: HotSpot kinase assay; conditions: read-out: % Enzyme Activity (relative to DMSO control), 10 uM
Source text: as §1

[19] = biological target: PDK4/PDHK4 (Homo sapiens, UniProt Q16654); assay: HotSpot kinase assay; conditions: read-out: % Enzyme Activity (relative to DMSO control), 10 uM
Source text: as §1

[20] = biological target: TEC (Homo sapiens, UniProt P42680); assay: HotSpot kinase assay; conditions: read-out: % Enzyme Activity (relative to DMSO control), 10 uM
Source text: as §1

[21] = biological target: CDK3/cyclin E2 (Homo sapiens, UniProt Q00526); assay: HotSpot kinase assay; conditions: read-out: % Enzyme Activity (relative to DMSO control), 10 uM
[22] = biological target: c-Kit (Homo sapiens, UniProt P10721); assay: HotSpot kinase assay; conditions: read-out: % Enzyme Activity (relative to DMSO control), 10 uM
Source text: as §1

[23] = biological target: MRCKa/CDC42BPA (Homo sapiens, UniProt Q5VT25); assay: HotSpot kinase assay; conditions: read-out: % Enzyme Activity (relative to DMSO control), 10 uM
Source text: as §1

[24] = biological target: MSK1/RPS6KA5 (Homo sapiens, UniProt O75582); assay: HotSpot kinase assay; conditions: read-out: % Enzyme Activity (relative to DMSO control), 10 uM
Source text: as §1

[25] = biological target: SYK (Homo sapiens, UniProt P43405); assay: HotSpot kinase assay; conditions: read-out: % Enzyme Activity (relative to DMSO control), 10 uM
Source text: as §1

[26] = biological target: PDK3/PDHK3 (Homo sapiens, UniProt Q15120); assay: HotSpot kinase assay; conditions: read-out: % Enzyme Activity (relative to DMSO control), 10 uM
Source text: as §1

[27] = biological target: EPHB4 (Homo sapiens, UniProt P54760); assay: HotSpot kinase assay; conditions: read-out: % Enzyme Activity (relative to DMSO control), 10 uM
Source text: as §1

[28] = biological target: CDK4/cyclin D1 (Homo sapiens, UniProt P11802); assay: HotSpot kinase assay; conditions: read-out: % Enzyme Activity (relative to DMSO control), 10 uM
Source text: as §1

[29] = biological target: SSTK/TSSK6 (Homo sapiens, UniProt Q9BXA6); assay: HotSpot kinase assay; conditions: read-out: % Enzyme Activity (relative to DMSO control), 10 uM
[30] = biological target: MLCK2/MYLK2 (Homo sapiens, UniProt Q9H1R3); assay: HotSpot kinase assay; conditions: read-out: % Enzyme Activity (relative to DMSO control), 10 uM
Source text: as §1

[31] = 3 mg/kg, 3 mg/kg, individual animals
[32] = 5 mg/kg, 5 mg/kg, individual animals

Chain of MLCK2/MYLK2 (Q9H1R3 whole entry): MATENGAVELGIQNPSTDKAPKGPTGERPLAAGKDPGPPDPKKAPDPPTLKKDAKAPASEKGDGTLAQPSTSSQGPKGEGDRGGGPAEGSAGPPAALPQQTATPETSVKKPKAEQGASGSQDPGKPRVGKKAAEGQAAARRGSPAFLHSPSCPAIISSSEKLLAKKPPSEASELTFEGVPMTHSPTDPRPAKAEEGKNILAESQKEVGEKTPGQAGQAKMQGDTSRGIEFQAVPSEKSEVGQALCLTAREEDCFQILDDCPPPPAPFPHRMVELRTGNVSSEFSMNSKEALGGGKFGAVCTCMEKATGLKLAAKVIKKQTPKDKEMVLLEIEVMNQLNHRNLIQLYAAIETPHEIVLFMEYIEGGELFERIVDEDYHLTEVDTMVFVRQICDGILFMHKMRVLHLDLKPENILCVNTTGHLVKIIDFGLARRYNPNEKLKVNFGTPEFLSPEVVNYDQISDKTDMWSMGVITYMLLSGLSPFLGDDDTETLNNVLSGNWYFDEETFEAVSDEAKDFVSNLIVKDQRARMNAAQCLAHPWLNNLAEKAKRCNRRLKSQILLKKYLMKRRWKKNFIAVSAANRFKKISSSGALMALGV
Chain of ARK5/NUAK1 (O60285 whole entry): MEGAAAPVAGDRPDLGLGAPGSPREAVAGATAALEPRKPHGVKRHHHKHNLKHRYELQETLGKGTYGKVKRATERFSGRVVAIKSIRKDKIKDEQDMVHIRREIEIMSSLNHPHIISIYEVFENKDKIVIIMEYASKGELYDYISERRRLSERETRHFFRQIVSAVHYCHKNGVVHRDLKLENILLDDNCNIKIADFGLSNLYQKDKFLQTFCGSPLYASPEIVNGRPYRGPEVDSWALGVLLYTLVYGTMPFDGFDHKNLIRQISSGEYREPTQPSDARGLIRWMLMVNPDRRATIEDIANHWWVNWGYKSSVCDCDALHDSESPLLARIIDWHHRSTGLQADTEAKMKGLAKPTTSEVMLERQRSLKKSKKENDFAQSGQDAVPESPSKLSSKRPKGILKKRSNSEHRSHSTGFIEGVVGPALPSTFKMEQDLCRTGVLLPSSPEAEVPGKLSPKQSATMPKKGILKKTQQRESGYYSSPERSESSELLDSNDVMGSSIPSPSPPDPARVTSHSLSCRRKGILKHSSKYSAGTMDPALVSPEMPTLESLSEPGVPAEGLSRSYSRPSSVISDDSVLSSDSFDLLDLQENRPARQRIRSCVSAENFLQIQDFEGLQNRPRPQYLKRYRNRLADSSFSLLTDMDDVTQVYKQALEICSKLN
Chain of EPHB4 (P54760 16-987): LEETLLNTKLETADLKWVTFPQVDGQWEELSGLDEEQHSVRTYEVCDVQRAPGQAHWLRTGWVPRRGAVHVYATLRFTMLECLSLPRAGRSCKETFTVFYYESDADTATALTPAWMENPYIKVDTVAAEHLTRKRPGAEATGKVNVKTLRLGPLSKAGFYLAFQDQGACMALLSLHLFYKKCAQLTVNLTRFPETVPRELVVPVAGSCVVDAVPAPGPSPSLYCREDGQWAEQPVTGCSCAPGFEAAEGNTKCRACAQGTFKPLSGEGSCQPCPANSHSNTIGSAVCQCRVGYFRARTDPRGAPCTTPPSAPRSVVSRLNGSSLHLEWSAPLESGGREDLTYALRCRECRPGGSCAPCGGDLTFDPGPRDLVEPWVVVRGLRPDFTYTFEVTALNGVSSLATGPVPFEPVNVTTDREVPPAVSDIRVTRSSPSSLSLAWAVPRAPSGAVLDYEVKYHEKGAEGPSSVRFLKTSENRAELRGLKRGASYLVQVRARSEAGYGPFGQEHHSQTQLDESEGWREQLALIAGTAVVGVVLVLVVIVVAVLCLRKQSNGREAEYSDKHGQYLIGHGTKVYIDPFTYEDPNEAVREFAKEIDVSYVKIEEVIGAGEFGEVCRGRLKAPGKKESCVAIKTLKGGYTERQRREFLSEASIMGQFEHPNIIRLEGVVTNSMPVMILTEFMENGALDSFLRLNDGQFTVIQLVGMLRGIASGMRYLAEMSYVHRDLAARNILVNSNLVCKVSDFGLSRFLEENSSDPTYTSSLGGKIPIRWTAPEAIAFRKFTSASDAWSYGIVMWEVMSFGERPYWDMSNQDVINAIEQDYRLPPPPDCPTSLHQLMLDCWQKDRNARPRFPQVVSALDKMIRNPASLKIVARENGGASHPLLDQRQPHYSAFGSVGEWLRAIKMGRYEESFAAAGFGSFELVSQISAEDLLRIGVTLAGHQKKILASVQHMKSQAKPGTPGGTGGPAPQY
Chain of TEC (P42680 whole entry): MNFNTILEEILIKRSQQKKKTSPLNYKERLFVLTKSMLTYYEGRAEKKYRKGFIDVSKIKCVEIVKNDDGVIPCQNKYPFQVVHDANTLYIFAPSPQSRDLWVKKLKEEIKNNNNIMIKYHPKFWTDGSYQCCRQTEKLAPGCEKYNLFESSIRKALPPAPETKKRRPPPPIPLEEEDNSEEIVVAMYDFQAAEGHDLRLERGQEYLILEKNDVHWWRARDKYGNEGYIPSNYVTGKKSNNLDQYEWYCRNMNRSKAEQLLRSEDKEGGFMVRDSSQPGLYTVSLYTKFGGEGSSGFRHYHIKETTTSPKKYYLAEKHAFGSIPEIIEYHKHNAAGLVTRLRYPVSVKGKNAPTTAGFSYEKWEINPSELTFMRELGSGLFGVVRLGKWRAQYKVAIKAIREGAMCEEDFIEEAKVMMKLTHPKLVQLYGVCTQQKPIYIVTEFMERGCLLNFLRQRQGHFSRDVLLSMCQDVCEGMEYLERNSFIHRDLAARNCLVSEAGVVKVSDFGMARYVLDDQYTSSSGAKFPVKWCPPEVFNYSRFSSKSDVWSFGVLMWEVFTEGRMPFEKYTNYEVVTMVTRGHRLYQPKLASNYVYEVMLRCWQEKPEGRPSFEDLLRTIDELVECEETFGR
Chain of IKKe/IKBKE (Q14164 whole entry): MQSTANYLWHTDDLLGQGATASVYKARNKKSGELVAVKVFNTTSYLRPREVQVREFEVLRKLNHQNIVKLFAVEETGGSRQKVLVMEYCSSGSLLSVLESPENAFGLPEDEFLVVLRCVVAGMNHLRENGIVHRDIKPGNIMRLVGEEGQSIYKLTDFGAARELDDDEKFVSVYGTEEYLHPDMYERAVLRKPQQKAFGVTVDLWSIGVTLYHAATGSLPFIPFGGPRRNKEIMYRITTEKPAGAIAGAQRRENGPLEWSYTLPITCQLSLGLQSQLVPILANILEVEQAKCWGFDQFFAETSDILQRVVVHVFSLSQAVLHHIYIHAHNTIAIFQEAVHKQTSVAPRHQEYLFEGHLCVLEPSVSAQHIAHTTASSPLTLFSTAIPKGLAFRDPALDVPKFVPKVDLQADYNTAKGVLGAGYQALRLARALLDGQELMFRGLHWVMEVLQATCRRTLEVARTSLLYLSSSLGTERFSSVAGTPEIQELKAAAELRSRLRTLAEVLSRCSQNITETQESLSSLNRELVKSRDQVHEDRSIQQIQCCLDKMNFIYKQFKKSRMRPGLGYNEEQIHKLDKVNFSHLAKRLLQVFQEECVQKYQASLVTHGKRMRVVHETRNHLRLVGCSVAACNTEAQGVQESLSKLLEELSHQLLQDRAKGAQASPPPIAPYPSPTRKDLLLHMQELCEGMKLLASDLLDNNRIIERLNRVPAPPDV
Chain of CDK3/cyclin E2 (Q00526 whole entry): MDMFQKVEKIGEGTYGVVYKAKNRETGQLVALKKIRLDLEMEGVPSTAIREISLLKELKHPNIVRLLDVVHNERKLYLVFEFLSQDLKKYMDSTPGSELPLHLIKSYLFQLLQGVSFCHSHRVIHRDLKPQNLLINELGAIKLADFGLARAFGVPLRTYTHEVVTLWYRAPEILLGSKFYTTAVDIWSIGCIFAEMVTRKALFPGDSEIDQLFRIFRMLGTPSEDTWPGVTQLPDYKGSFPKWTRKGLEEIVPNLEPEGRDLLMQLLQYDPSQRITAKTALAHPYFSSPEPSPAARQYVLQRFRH
Chain of CDK3/cyclin E2 (O96020 whole entry partner): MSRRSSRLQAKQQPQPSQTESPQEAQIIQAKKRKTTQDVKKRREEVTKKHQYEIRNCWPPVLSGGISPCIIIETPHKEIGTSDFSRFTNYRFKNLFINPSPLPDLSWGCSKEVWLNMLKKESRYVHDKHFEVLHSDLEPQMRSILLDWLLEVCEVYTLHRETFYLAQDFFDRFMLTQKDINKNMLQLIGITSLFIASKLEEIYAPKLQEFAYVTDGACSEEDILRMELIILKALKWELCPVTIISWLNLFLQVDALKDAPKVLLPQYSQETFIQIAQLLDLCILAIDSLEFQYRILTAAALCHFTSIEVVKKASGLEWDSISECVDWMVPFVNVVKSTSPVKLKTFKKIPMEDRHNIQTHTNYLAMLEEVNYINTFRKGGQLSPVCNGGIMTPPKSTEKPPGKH
Chain of NIM1 (Q8IY84 whole entry): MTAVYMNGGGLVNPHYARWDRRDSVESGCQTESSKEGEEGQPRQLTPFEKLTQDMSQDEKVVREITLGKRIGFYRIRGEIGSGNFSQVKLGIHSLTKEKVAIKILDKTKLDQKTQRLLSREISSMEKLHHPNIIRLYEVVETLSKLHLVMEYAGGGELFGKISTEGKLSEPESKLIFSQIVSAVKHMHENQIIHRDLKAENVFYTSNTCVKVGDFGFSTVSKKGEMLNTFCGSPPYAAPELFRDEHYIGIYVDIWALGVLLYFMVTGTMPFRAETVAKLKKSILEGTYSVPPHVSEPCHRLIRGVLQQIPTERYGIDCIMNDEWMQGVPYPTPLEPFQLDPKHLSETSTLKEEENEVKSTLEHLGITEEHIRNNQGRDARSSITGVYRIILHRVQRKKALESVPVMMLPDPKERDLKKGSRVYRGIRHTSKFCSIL
Chain of SSTK/TSSK6 (Q9BXA6 whole entry): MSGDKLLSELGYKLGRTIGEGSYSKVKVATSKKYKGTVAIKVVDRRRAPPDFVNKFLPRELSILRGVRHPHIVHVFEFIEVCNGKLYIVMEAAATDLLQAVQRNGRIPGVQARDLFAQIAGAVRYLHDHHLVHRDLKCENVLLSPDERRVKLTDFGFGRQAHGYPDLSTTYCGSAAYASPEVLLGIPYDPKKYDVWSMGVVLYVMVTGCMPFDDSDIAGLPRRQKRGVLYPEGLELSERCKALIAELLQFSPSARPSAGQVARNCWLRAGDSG

For `C#C[C@@](C)(c1ccc(Cl)cc1)c1csc(NC(=O)c2c(F)cc(N3CCNCC3)cc2F)n1` (stereo in doubt) [DF-003], the remaining activity at 10 µM [1] was 52.2%, the remaining activity at 10 µM [2] was 90.6% and the “Iba1 positive cells in 200 μm INL (Inner nuclear layer)” value ([3]; DF-003 3mpk, 3 mg/kg) was 0.00 and 0.04 and 0.08. The “Iba1 positive cells in 200 μm ONL (Outer nuclear layer)” value ([3]; DF-003 3mpk, 3 mg/kg) was 0.00 and 0.08 and 0.04, the “Iba1 positive cells in 200 μm INL (Inner nuclear layer)” value ([3]; DF-003 5mpk, 5 mg/kg) was 0.00 and 0.04 and 0.11 and the “Iba1 positive cells in 200 μm ONL (Outer nuclear layer)” value ([3]; DF-003 5mpk, 5 mg/kg) was 0.08 and 0.06 and 0.00 and 0.04. The remaining activity at 10 µM [4] was 85.2%, the remaining activity at 10 µM [5] was 128% and the remaining activity at 10 µM [6] was 68.8%. The remaining activity at 10 µM [7] was 114%, the remaining activity at 10 µM [8] was 85.3% and the CAVG ([9]; 3 mg/kg oral) was 75.6 ± 5.53 ng/mL. For the same compound, the CAVG ([9]; 5 mg/kg oral) was 164 ± 29.0 ng/mL, the “average time to Cmax (Tmax)” value ([9]; 3 and 5 mg/kg oral, 10th dose) was 2 to 2.67 h and the “DF-003 Conc. in tissues 24 hr after 10th dosing” value (“DF-003 Conc. in tissues 24 hr” below) ([9]; Cerebral Cortex, 3 mg/kg, individual animals) was 1358 and 1241 and 1263. The “DF-003 Conc. in tissues 24 hr” value ([9]; Cerebral Cortex, 5 mg/kg, individual animals) was 2520 and 2846 and 2696, the “DF-003 Conc. in tissues 24 hr” value ([9]; Optic Nerve, 3 mg/kg, 6 optic nerves from 3 mice of same dosing group combined into one sample) was 1104 and the “DF-003 Conc. in tissues 24 hr” value ([9]; Optic Nerve, 5 mg/kg, 6 optic nerves from 3 mice of same dosing group combined into one sample) was 1615. For the same compound, the “DF-003 Conc. in tissues 24 hr” value ([9]; Retina, 3 mg/kg, individual animals) was 620 and 646 and 1356, the “DF-003 Conc. in tissues 24 hr” value ([9]; Retina, 5 mg/kg, individual animals) was 1351 and 1933 and 1171 and the concentration at 0 h [9, 31] was 46.4 ng/mL. For the same compound, the concentration at 0.5 h [9, 31] was 78.6 ng/mL, the concentration at 1 h [9, 31] was 110 ng/mL and the concentration at 2 h [9, 31] was 123 ng/mL. It also gave a concentration at 4 h [9, 31] of 115 ng/mL, a concentration at 6 h [9, 31] of 92 ng/mL and a concentration at 8 h [9, 31] of 99.9 ng/mL. It also gave a concentration at 12 h [9, 31] of 73.9 ng/mL, a concentration at 24 h [9, 31] of 19.5 ng/mL and a concentration at 0 h [9, 32] of 142 ng/mL. It also gave a concentration at 0.5 h [9, 32] of 168 ng/mL, a concentration at 1 h [9, 32] of 228 ng/mL and a concentration at 2 h [9, 32] of 218 ng/mL. The concentration at 4 h [9, 32] was 238 ng/mL, the concentration at 6 h [9, 32] was 174 ng/mL and the concentration at 8 h [9, 32] was 162 ng/mL. The concentration at 12 h [9, 32] was 122 ng/mL, the concentration at 24 h [9, 32] was 45.6 ng/mL and the AUC ([9]; 3 mg/kg) was 1820 ± 132 ng·h/mL. The CL/F ([9]; 3 mg/kg) was 27.6 ± 1.94 mL/min/kg, the Cmax ([9]; 3 mg/kg) was 160 ng/mL and the Tmax ([9]; 3 mg/kg) was 2 h. For the same compound, the Vd/F ([9]; 3 mg/kg) was 18.3 ± 1.55 L/kg, the half-life ([9]; 3 mg/kg) was 7.69 h and the AUC ([9]; 5 mg/kg) was 3940 ± 697 ng·h/mL. It also gave a CL/F ([9]; 5 mg/kg) of 21.6 ± 4.11 mL/min/kg, a Cmax ([9]; 5 mg/kg) of 310 ng/mL and a Tmax ([9]; 5 mg/kg) of 2.67 ± 1.15 h. The Vd/F ([9]; 5 mg/kg) was 16.5 ± 3.68 L/kg, the half-life ([9]; 5 mg/kg) was 8.81 h and the remaining activity at 10 µM [10] was 104%. For the same compound, the remaining activity at 10 µM [11] was 104%, the remaining activity at 10 µM [12] was 88.3% and the remaining activity at 10 µM [13] was 92.8%. For the same compound, the remaining activity at 10 µM [14] was 93.2%, the remaining activity at 10 µM [15] was 98.2% and the remaining activity at 10 µM [16] was 104%. The remaining activity at 10 µM [17] was 95.5%, the remaining activity at 10 µM [18] was 101% and the remaining activity at 10 µM [19] was 103%. It also gave a remaining activity at 10 µM [20] of 104%, a remaining activity at 10 µM [21] of 103% and a remaining activity at 10 µM [22] of 67.6%. It also gave a remaining activity at 10 µM [23] of 85.9%, a remaining activity at 10 µM [24] of 57.8% and a remaining activity at 10 µM [25] of 78.8%. The remaining activity at 10 µM [26] was 89.9%, the remaining activity at 10 µM [27] was 85.6% and the remaining activity at 10 µM [28] was 91.3%. For the same compound, the remaining activity at 10 µM [29] was 98.4% and the remaining activity at 10 µM [30] was 81.3%.
